# Measurements from patent US6808909B2, “Thermostable phytase with 2.1 Å . . . crystal structure” (Korea Research Institute of Bioscience and Biotechnology, priority 2000, dated 2004).
# Molecular target: T1, phytase derived from B. amyloliquefaciens DS-11 (Bacillus sp., UniProt O66037)
# T1 construct: made in house; host or cells: Bacillus subtilis DB104/pJPK
# Assay: Activity of the phytase on phytate and myo-inositol monophosphate substrates
# Format: biochemical
# Conditions: 2 mM substrate, 37° C. for 15 min, 20 mM Tris/HCl (pH7.0) buffer; relative to phytate = 100
# Procedure: The activities of the phytase derived from B. amyloliquefaciens DS11 were measured on its 2 mM substrates of myo-inositol, hexaphosphate, mio-inositol 1-monophosphate, mio-inositol 2-monophosphate, myo-inositol 4-monophosphate, after incubating at 37° C. for 15 min in a 20 mM Tris/HCl (pH7.0) buffer.
# T1 sequence (O66037 31-383): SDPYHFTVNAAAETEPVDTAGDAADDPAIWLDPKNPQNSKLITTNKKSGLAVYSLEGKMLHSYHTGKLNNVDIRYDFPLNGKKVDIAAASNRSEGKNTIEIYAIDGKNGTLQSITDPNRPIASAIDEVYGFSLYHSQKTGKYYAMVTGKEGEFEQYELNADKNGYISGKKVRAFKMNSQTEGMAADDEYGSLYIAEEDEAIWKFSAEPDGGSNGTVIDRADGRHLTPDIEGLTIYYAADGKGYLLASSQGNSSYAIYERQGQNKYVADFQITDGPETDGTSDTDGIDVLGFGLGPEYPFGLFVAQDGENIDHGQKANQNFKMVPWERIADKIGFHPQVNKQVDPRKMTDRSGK
row,SMILES,Relative Enzyme Activity (%)
1,"O=P(O)(O)OC1[C@@H](O)[C@@H](O)C(O)[C@H](O)[C@H]1O (stereo partly shown) [4′-monophosphoinositol, myo-inositol 4-monophosphate]",40%
2,"O=P(O)(O)OC1[C@@H](O)[C@H](O)C(O)[C@H](O)[C@H]1O (stereo partly shown) [2′-monophosphoinositol, mio-inositol 2-monophosphate]",28%
3,"O=P(O)(O)OC1[C@H](O)[C@H](O)C(O)[C@H](O)[C@H]1O (stereo partly shown) [1′-monophosphoinositol, mio-inositol 1-monophosphate]",27%
4,"O=P(O)(O)O[C@H]1[C@H](OP(=O)(O)O)[C@@H](OP(=O)(O)O)[C@H](OP(=O)(O)O)[C@@H](OP(=O)(O)O)[C@H]1OP(=O)(O)O [Phytate, myo-inositol, hexaphosphate]",100%
